Source: patent US20170283378A1, “INDOLE DERIVATIVES FOR THE PREVENTION AND/OR TREATMENT OF DIABETES AND ASSOCIATED METABOLIC DISORDERS” (Consejo Superior de Investigaciones Cientificas (CSIC), priority 2014, published 2017)

System: AMPK
Assay: AMPK activation measurements in cultured cells (Western Blot of pThr172 AMPK alpha and pSer79 ACC)
Type: cell-based, human
Settings: for activation of AMPK (anti-phosphoThr172 AMPK alpha, Western Blot) / phosphorylation of ACC substrate (anti-phosphoSer79ACC, Western Blot): HEK293 cells treated for 1 hour; for endogenous levels of AMPKα pT172: HEK293 cells, increasing doses, phenformin 5 mM as activation control; for activation of the AMPK complex: at the indicated doses (figures), cultured HEK293 cells
Experimental: AMPK activation measurements in cultured cells by means of compounds 7 and 16.
Cell line and treatments. The cell line that was used in the treatments with the different assayed reagents was HEK293T (human embryonic kidney cells). Cells were grown in DMEM (Dulbecco's Modified Eagle's Medium) with 25 mM of glucose supplemented with 10% of inactivated fetal bovine serum, 2 mM glutamine, 100 units/ml of penicillin and 100 μg/ml of streptomycin, in a humid atmosphere at 37° C. with 5% of CO2. Cells were grown on 60 mm (p. 60) plates to obtain 70-80% of confluence. Cells were washed in Krebs Ringer buffer (KRB: NaCI […], CaCl2 […], KH2PO4 0.5 mM, KCl 3 mM, NaHCO3 2.5 mM, MgSO40.5 mM, HEPES 10 mM pH 7.4, 95:5 O2/CO2) tempered at 37° C. and subsequently treated for 1 hour at 37° C. in a culture oven, adding the adequate quantities of 7 and 16 (5 mM stock in DMSO) dissolved in KRB/25 mM glucose to reach the final concentrations indicated in the figures. Phenformin 5 mM was used as an activation control.
Preparation of HEK293T cell extracts. After the corresponding treatments, the supernatant was removed and cells were quickly-frozen in liquid N2. The plates were processed one by one and kept in ice , firstly adding the cold lysis buffer. The composition of the buffer was as follows: Tris 10 mM pH 7.4, EDTA 15 mM pH 8.0, NaF 50 mM, Na4P2O7 15 mM, sacarose 0.6 M, 2-Mercaptoethanol 15 mM, a mixture of protease inhibitors without EDTA (Roche) and 1 mM PMSF. Cells were collected in a lysis buffer with the help of a scraper and were lysed, passing each sample through 24 G×⅝″ syringes four times. A small amount was reserved to measure the quantity of protein using the Bradford protein assay and loading buffer for electrophoresis was added to the rest and boiled for 5 min maintaining the samples at −20° C. until their use. The concentration of proteins was determined through the Bradford method using the Bio-Rad Bradford Protein Assay Reagent (BioRad).
Protein analysis by Western Blot. The protein extracts were analysed using SDS-PAGE in gels with 8% or 10% acrylamide and 1.5 mm thick. 30 µg of protein were loaded and transferred to a PVDF (Millipore) membrane for 1.5 hours at 100 V. Blockage was performed using 5% of skimmed milk in TBS-T for 1 hour at room temperature. Immunodetection was performed by incubating the primary antibody all night at 4° C. After three 10-minute washes at room temperature using TBS-T, they were incubated with their corresponding secondary antibody conjugated to HRP. After the three 10-minute washes at room temperature using TBS-T, the membranes were developed using ECL plus (Pierce) and processed using a FUJI LAS 3000 (Fujifilm) unit. The antibodies used were: anti-pAMPKαThr172, anti-AMPKβ1/β2, anti-ACC and anti-pACCser79 from the company Cell Signaling Technology (Danvers, Mass., USA) diluted 1:1000, and the HRP goat anti-rabbit secondary antibody from the company Santa Cruz Technology at a dilution of 1:5000 or 1:10000. The detection of bands with the anti-pAMPKαThr172 and anti-pACCser79 antibodies (AMPK substrate) with respect to their respective loading controls (anti-AMPKβ1/β2 and anti-ACC) was taken as an indicative of AMPK activation.

[1] = concentrations between 12.5 and 50 μM, FIG. 1
[2] = concentrations between 12.5 and 100 μM, FIG. 2

O=C(O)c1c(-c2ccc(-c3ccccc3O)cc2)c2ccccc2n1Cc1ccccc1 [compound 7, 1-benzyl-3-(2′-hydroxy-[1,1′-biphenyl]-4-yl)-1H-indole-2-carboxylic acid]
activation of AMPK (anti-phosphoThr172 AMPK alpha, Western Blot) [1]: activates AMPK in a dose-dependent manner
phosphorylation of ACC substrate (anti-phosphoSer79ACC, Western Blot) [1]: increase in phosphorylation
endogenous levels of AMPKα pT172: increase in endogenous levels of AMPKα pT172
activation of the AMPK complex: capable of inducing the activation of the AMPK complex

O=C(O)c1[nH]c2ccccc2c1-c1ccc(-c2ccccc2O)cc1 [compound 16, 3-(2′-hydroxy-[1,1′-biphenyl]-4-yl)-1H-indole-2-carboxylic acid]
activation of AMPK (anti-phosphoThr172 AMPK alpha, Western Blot) [2]: activates AMPK in a dose-dependent manner
phosphorylation of ACC substrate (anti-phosphoSer79ACC, Western Blot) [2]: increase in phosphorylation
endogenous levels of AMPKα pT172: increase in endogenous levels of AMPKα pT172
activation of the AMPK complex: capable of inducing the activation of the AMPK complex
